What all share (test): relative viability (nuclei count vs DMSO), 5 days (fraction); higher = more cells survive
Compound in the test “BAY61-3606 + Palbociclib”: COC1=C(C=C(C=C1)C2=CC3=NC=CN3C(=N2)NC4=C(C=CC=N4)C(=O)N)OC [BAY61-3606] + CC(=O)c1c(C)c2cnc(Nc3ccc(N4CCNCC4)cn3)nc2n(C2CCCC2)c1=O [Palbociclib] (partner 0.5 µM)
In short, it runs like this: (§1)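 Relative viability is defined as nuclei in treated wells over nuclei in vehicle wells. Duplicate plates were run and medians reported. Lung cancer cell lines in 1536-well plates were dosed by pin tool one day after seeding, with one drug or with a fixed anchor-drug dose plus five library-drug doses (not always all listed) in √10 steps, and nuclei were counted after 5 days.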

Compound in the test “BAY61-3606 + Luminespib”: COC1=C(C=C(C=C1)C2=CC3=NC=CN3C(=N2)NC4=C(C=CC=N4)C(=O)N)OC [BAY61-3606] + CCNC(=O)c1noc(-c2cc(C(C)C)c(O)cc2O)c1-c1ccc(CN2CCOCC2)cc1 [Luminespib] (partner 0.01 µM)
In short, it runs like this:
as §1

Compound in the test “BAY61-3606 + Alpelisib”: COC1=C(C=C(C=C1)C2=CC3=NC=CN3C(=N2)NC4=C(C=CC=N4)C(=O)N)OC [BAY61-3606] + Cc1nc(NC(=O)N2CCC[C@H]2C(N)=O)sc1-c1ccnc(C(C)(C)C(F)(F)F)c1 [Alpelisib] (partner 2 µM)
In short, it runs like this: as §1

Compound in the test “BAY61-3606 + Phenformin”: COC1=C(C=C(C=C1)C2=CC3=NC=CN3C(=N2)NC4=C(C=CC=N4)C(=O)N)OC [BAY61-3606] + N=C(N)NC(=N)NCCc1ccccc1 [Phenformin] (partner 250 µM)
In short, it runs like this:
as §1

This note sets out measurements from the supplement of paper PMC10307832.

Consider UMC-11, for which the relative viability in the test with BAY61-3606 + Palbociclib (first compound 0.02 µM) turned out to be 0.352; in the test with BAY61-3606 + Palbociclib (first compound 0.06325 µM) it was 0.319; with BAY61-3606 + Palbociclib (first compound 0.2 µM) it was 0.304; with BAY61-3606 + Palbociclib (first compound 0.6325 µM), 0.361; with BAY61-3606 + Palbociclib (first compound 2 µM) it was 0.339; in the test with BAY61-3606 + Luminespib (first compound 0.02 µM), 1.12. Moreover, the relative viability with BAY61-3606 + Luminespib (first compound 0.06325 µM) worked out at 1.17; with BAY61-3606 + Luminespib (first compound 0.2 µM), 1.08; in the test with BAY61-3606 + Luminespib (first compound 0.6325 µM), 1.05; in the test with BAY61-3606 + Luminespib (first compound 2 µM), 0.921; with BAY61-3606 + Alpelisib (first compound 0.02 µM) it was 1.01; in the test with BAY61-3606 + Alpelisib (first compound 0.06325 µM), 1.09. Besides, the relative viability in the test with BAY61-3606 + Alpelisib (first compound 0.2 µM) was 1.08; with BAY61-3606 + Alpelisib (first compound 0.6325 µM), 0.973; with BAY61-3606 + Alpelisib (first compound 2 µM), 0.912; in the test with BAY61-3606 + Phenformin (first compound 0.02 µM) it was 0.333; with BAY61-3606 + Phenformin (first compound 0.06325 µM), 0.339; with BAY61-3606 + Phenformin (first compound 0.2 µM), 0.334. The relative viability in the test with BAY61-3606 + Phenformin (first compound 0.6325 µM) came to 0.332; with BAY61-3606 + Phenformin (first compound 2 µM) it was 0.298.
